{"source": "patent US12516055B2", "about": "“Protein kinase inhibitors and uses thereof for the treatment of diseases and conditions” (University of Houston System, priority 2019, dated 2026)", "key": {"[1]": {"test_system": "LPS/IDN-treated murine RAW264.7 macrophages", "test": "Protection from necroptosis in LPS/IDN-treated RAW264.7 macrophages (CellTiter-Glo)", "assay_type": "cell-based", "procedure": "(§2) IC50/LD50 values were determined for inhibition of recombinant RIPK3, inhibition of necroptosis in LPS/IDN-treated murine RAW264.7 macrophages and TNF/IDN-treated human Hela cells expressing RIPK3, RIPK3 binding by the inhibitors in live cells (NanoBRET assay), and induction of RIPK3-dependent apoptosis (i.e., on-target toxicity). Assays were performed using ADPGlo (kinase assay), CellTiter-Glo (viability), and NanoBRET (target engagement) assays.\n(§3) After incubation with drugs, 15 μL of CellTiter-Glo reagent is added to the wells and incubated for 10 min Luminescence signals are determined using appropriate luminescence plate-reader (typical integration time 0.3 sec)."}, "RIPK3 [2]": {"biological_target": "T1, RIPK3 (Homo sapiens, UniProt Q9Y572)", "T1 sequence (Q9Y572 whole entry, species assumed)": "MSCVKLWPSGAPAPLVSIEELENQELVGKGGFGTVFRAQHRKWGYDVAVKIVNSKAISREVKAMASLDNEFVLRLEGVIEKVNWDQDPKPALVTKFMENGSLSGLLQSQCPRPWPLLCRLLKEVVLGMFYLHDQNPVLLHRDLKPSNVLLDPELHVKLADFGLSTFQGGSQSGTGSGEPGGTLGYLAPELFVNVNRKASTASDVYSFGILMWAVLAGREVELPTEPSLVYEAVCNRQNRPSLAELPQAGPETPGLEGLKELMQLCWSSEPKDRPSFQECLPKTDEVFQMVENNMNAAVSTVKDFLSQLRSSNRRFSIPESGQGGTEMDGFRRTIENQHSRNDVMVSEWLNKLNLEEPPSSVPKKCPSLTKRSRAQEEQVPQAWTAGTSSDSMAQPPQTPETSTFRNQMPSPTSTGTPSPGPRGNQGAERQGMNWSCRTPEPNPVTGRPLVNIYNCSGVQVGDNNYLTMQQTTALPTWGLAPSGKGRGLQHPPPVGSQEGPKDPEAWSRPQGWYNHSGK", "test": "RIPK3 binding in live HEK cells (NanoBRET target engagement)", "design": "expressed in transfected cells; host or cells: HEK cells", "procedure": "as §2"}, "RIPK3 [3]": {"biological_target": "T1, RIPK3", "test": "Inhibition of recombinant RIPK3 (ADP-Glo kinase assay)", "assay_type": "biochemical", "conditions": "recombinant RIPK3, ADPGlo; read-out: Inhibition of RIPK3, RIPK3 protein IC50", "procedure": "as §2\nFor ADP-Glo assays, recombinant RIPK3 protein (20 ng per reaction) is diluted in the reaction buffer consisting of 50 mM HEPES, pH 7.5, 50 mM NaCl, 30 mM MgCl2, 1 mM DTT, 0.05% bovine serum albumin (BSA), 0.02% CHAPS. Diluted protein is added to low volume white 384 well plates (2 μL/well). […] Reactions are initiated by the addition of 2 μL of 100 μM ATP in the reaction buffer. Plates are sealed with plastic coverslips and incubated at room temperature for 4 h. Reactions are stopped by the addition of 5 μL of ADP-Glo reagent (Promega) and ADP generation reaction is performed for 40 mM at room temperature Luminescence signal is generated by the addition of 10 μL of Kinase detection reagent (Promega) for 30 mM at room temperature Luminescence signals are determined using appropriate luminescence plate-reader (typical integration time 0.3-1 sec). To calculate percent inhibition, average background signal is subtracted from test well and maximal signal wells. Inhibition, %=(1−(test signal/maximal signal))*100. The percent inhibition at a specified concentration is determined or IC50 values are calculated based on a dose range of inhibitor concentrations using non-linear regression in GraphPad Prism software. […] After incubation with drugs, 15 μL of CellTiter-Glo reagent is added to the wells and incubated for 10 min Luminescence signals are determined using appropriate luminescence plate-reader (typical integration time 0.3 sec). To calculate percent viability, Viability, %=(1−(test signal/maximal viability in the untreated wells))*100."}, "NOD2 cellular signaling": {"test_system": "NOD2 cellular signaling", "test": "NOD2 signaling assay in HEK-Blue cells (NFkB-SEAP reporter)", "assay_type": "cell-based", "conditions": "Homo sapiens, L18-MDP stimulated, read-out: EC50 HEK Blue (μM) RIPK2", "protocol": "HEK-Blue cells expressing human NOD2 and NFkB-SAEP reporter (Invivogen) are seeded into 96 well clear plates at 7.5×10^3 cells per well in 100 μL of DMEM media supplemented with 10% FBS and 1% antibiotic-antimycotic mix. Cells are allowed to attach for 48 h in 5% CO2 tissue culture incubator at 37° C. On the morning of the experiment, media in the wells is replaced with 100 μL of HEK-Blue detection media (Invivogen). Cells are treated with the inhibitors, diluted in DMSO (0.5 μL per well) for […] in 5% CO2 tissue culture incubator at 37° C. After that, cells are stimulated by the addition of 1 ng/well L18-MDP (Invivogen). Cells are incubated in 5% CO2 tissue culture incubator at 37° C. for 8 h and absorbance, corresponding to the SEAP in the media, is determined in Wallac3V plate reader (Perkin Elmer). Inhibition, %=(1−((sample signal-unstimulated and DMSO treated cells)/(L18−MDP stimulated and DMSO treated cells−unstimulated and DMSO treated cells)))*100.\n(§1) Prepared compounds were evaluated for their ability to inhibit RIPK2 and ALK2 enzyme activities and NOD2 cellular signaling using the methods described above."}, "[4]": {"test_system": "TNF/IDN-treated human Hela cells expressing RIPK3", "test": "Protection from necroptosis in TNF/IDN-treated Hela-RIPK3 cells (CellTiter-Glo)", "assay_type": "cell-based", "procedure": "as §2, §3"}, "[5]": {"test_system": "RIPK3 and MLKL phosphorylation", "test": "RIPK3 and MLKL phosphorylation in RAW264.7 macrophages (Western blot, FIG. 31)", "assay_type": "cell-based", "conditions": "LPS 10 ng/ml + IDN6556 20 μM", "protocol": "Necroptosis was induced by the combination of LPS (10 ng/ml) and pan-caspase inhibitor IDN6556 (20 μM). Note that LPS is a TLR4 ligand that, like TNF, can activate RIPK3 (and necroptosis) in the presence of a caspase inhibitor. The asterisk indicates a non-specific band sometimes see in pMLKL immunoblots. Samples are subjected to SDS-PAGE gele electrophoresis and Western blotting using RIPK3, phospho-Thr231/Ser232-RIPK3, MLKL and phospho-Ser345-MLKL antibodies (Abcam)."}, "Hela-RIPK3 cells [6]": {"test_system": "Hela-RIPK3 cells", "conditions": "Mandal et al. 2014, one cell under both toxicity columns; cited from earlier work"}, "human ALK2": {"biological_target": "T2, human ALK2 (Homo sapiens, UniProt Q04771)", "T2 sequence (Q04771 21-509)": "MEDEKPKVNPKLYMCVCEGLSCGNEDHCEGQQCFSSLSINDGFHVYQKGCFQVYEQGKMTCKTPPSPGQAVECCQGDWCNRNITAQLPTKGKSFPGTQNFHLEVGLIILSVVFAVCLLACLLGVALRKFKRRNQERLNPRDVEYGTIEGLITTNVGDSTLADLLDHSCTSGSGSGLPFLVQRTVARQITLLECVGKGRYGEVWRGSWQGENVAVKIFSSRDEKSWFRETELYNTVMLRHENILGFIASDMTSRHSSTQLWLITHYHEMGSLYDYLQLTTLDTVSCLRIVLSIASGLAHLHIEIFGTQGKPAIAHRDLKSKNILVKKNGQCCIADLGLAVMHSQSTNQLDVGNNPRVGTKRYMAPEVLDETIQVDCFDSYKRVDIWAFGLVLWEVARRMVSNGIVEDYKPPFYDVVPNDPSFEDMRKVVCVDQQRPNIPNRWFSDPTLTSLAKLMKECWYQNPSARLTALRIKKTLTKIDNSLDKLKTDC", "test": "ALK2 enzyme assay (33P-casein)", "assay_type": "biochemical", "conditions": "10 μM ATP", "protocol": "Enzyme inhibitory activity was evaluated in a standard kinase enzyme assay by incubating human ALK2 with the protein substrate casein (1 mg/mL) and γ-^33ATP (10 μM) in the presence of various concentrations of test compounds (10 nM 100 μM). After 30 min the amount of ^33P-casein was determined.\nas §1"}, "Hela-RIPK3 cells [7]": {"test_system": "Hela-RIPK3 cells", "procedure": "as §2\nFor ADP-Glo assays, recombinant RIPK3 protein (20 ng per reaction) is diluted in the reaction buffer consisting of 50 mM HEPES, pH 7.5, 50 mM NaCl, 30 mM MgCl2, 1 mM DTT, 0.05% bovine serum albumin (BSA), 0.02% CHAPS. Diluted protein is added to low volume white 384 well plates (2 μL/well). […] Reactions are stopped by the addition of 5 μL of ADP-Glo reagent (Promega) and ADP generation reaction is performed for 40 mM at room temperature Luminescence signal is generated by the addition of 10 μL of Kinase detection reagent (Promega) for 30 mM at room temperature Luminescence signals are determined using appropriate luminescence plate-reader (typical integration time 0.3-1 sec). […] The percent inhibition at a specified concentration is determined or IC50 values are calculated based on a dose range of inhibitor concentrations using non-linear regression in GraphPad Prism software. […]"}, "[8]": {"conditions": "Mus musculus, LPS/IDN-treated RAW264.7 cells, read-out: Protection from necroptosis, RAW264.7 cells IC50"}}, "note": "Read-outs that look alike come from different tables or passages of the source. Marks after values point to notes of the source that are not given here."}
{"compound": "CN1CCN(c2cccc(Nc3cc4c(cn3)cc(-c3cccc(O)c3)c(=O)n4C)c2)CC1", "note": "[compound 38]", "values": [{"measurement": "Toxicity, RAW264.7 cells LD50", "setting": "RAW264.7 cells", "value": ">10", "unit": "µM"}, {"measurement": "IC50", "setting": "[1]; [8]", "value": 0.02, "unit": "µM"}, {"measurement": "IC50", "setting": "RIPK3 [2]", "value": 0.02, "unit": "µM"}, {"measurement": "IC50", "setting": "RIPK3 [3]", "value": 0.01, "unit": "µM"}]}
{"compound": "Cn1c(=O)c(-c2ccccc2Cl)cc2cnc(Nc3cccc(N4CCS(=O)(=O)CC4)c3)cc21", "note": "[UH15-28, 3-(2-chlorophenyl)-7-((3-(1,1-dioxidothiomorpholino)phenyl)amino)-1-methyl-1,6-naphthyridin-2(1H)-one]", "values": [{"measurement": "EC50", "setting": "NOD2 cellular signaling", "value": 0.07, "unit": "µM"}]}
{"compound": "CCN(CC)CCOc1ccc(Nc2ncc3cc(-c4c(Cl)cccc4Cl)c(=O)n(CCOC)c3n2)cc1", "note": "[compound 6]", "values": [{"measurement": "IC50", "setting": "RIPK3 [2]", "value": 0.02, "unit": "µM"}, {"measurement": "IC50", "setting": "RIPK3 [3]", "value": 0.02, "unit": "µM"}]}
{"compound": "CCN(CC)CCOc1ccc(Nc2ncc3cc(-c4c(Cl)cccc4Cl)c(=O)n(CC(C)C)c3n2)cc1", "note": "[compound 10]", "values": [{"measurement": "IC50", "setting": "RIPK3 [3]", "value": 0.08, "unit": "µM"}]}
{"compound": "CC(C)S(=O)(=O)c1ccc2nccc(Nc3ccc4scnc4c3)c2c1", "note": "[GSK′872, reference compound]", "values": [{"measurement": "IC50", "setting": "[1]; LPS/IDN-treated RAW264.7 cells, read-out: Protection from necroptosis, RAW264.7 cells IC50", "value": 1.29, "unit": "µM"}, {"measurement": "IC50", "setting": "[4]", "value": 3.21, "unit": "µM"}, {"measurement": "Block of RIPK3 and MLKL phosphorylation", "setting": "[5]", "value": "block RIPK3 and MLKL phosphorylation"}, {"measurement": "Toxicity LD50 (published value)", "setting": "Hela-RIPK3 cells [6]", "value": "~10* μM"}]}
{"compound": "Cc1ccc(-c2cc3cnc(Nc4cccc(S(C)(=O)=O)c4)nc3n(C)c2=O)c(Cl)c1", "note": "[compound 20]", "values": [{"measurement": "IC50", "setting": "RIPK3 [2]", "value": 0.95, "unit": "µM"}, {"measurement": "IC50", "setting": "RIPK3 [3]", "value": 0.28, "unit": "µM"}]}
{"compound": "CN1CCN(c2cccc(Nc3cc4c(cn3)cc(-c3ccccc3Cl)c(=O)n4C)c2)CC1", "note": "[UH15-37, 3-(2-chlorophenyl)-1-methyl-7-((3-(4-methylpiperazin-1-yl)phenyl)amino)-1,6-naphthyridin-2(1H)-one]", "values": [{"measurement": "IC50", "setting": "human ALK2", "value": 32300, "unit": "nM"}, {"measurement": "EC50", "setting": "NOD2 cellular signaling", "value": 0.05, "unit": "µM"}]}
{"compound": "CCN(CC)CCOc1ccc(Nc2ncc3cc(-c4ccccc4)c(=O)n(CC)c3n2)cc1", "note": "[compound 4]", "values": [{"measurement": "Toxicity, RAW264.7 cells LD50", "setting": "RAW264.7 cells", "value": 5.2, "unit": "µM"}, {"measurement": "IC50", "setting": "[1]; Mus musculus, RAW264.7, read-out: Protection from necroptosis, RAW264.7 cells IC50", "value": 0.18, "unit": "µM"}, {"measurement": "IC50", "setting": "RIPK3 [3]", "value": 0.3, "unit": "µM"}]}
{"compound": "CN1CCN(c2cccc(Nc3cc4c(cn3)cc(-c3ccccc3Cl)c(=O)n4C)c2)CC1", "note": "[compound 37]", "values": [{"measurement": "Toxicity, RAW264.7 cells LD50", "setting": "RAW264.7 cells", "value": ">10", "unit": "µM"}, {"measurement": "IC50", "setting": "[1]; [8]", "value": 0.25, "unit": "µM"}, {"measurement": "Toxicity, Hela-RIPK3 cells LD50", "setting": "Hela-RIPK3 cells [7]", "value": ">10", "unit": "µM"}, {"measurement": "IC50", "setting": "[4]; Homo sapiens", "value": 0.06, "unit": "µM"}, {"measurement": "IC50", "setting": "RIPK3 [2]", "value": 0.08, "unit": "µM"}, {"measurement": "IC50", "setting": "RIPK3 [3]", "value": 0.05, "unit": "µM"}]}
